Where two headings read alike, the source gives them in different places.
Tests used:
sucker and stickleback [1] = conditions: cited from earlier work
sucker and stickleback [2] = conditions: in vivo
steelhead trout = conditions: in vivo
bridgelip sucker [3] = system: bridgelip sucker; design: species or system Catastomus columbianus; conditions: in vivo
carp = conditions: used in ponds; cited from earlier work
[4] = published literature; cited from earlier work
bridgelip sucker [5] = experiment: Selectivity and safety indices of salmonids versus the bridgelip sucker; assay type: in vivo, Catastomus columbianus; conditions: steelhead trout; 24 h
Excerpt: Delineation bioassays determined primarily the LC50 and LC100 of sucker and stickleback and the LC0 and LC50 of salmonids.
The statistical LC1, LC50, and LC99 were interpolated and/or extrapolated using probit graph paper to approximate the LC0, LC50, and LC100 when the latter set of values was not closely determined by single concentrations in a series.
The approximate LC50 and LC100 of the target fishes (threespine and brook sticklebacks and bridgelip and white suckers) are tabulated in Table 1. The 96-hour selectivity and safety indices of selected species of salmonids versus the three-spine stickleback are tabulated in Table 3.
Threespine stickleback, brook stickleback, bridgelip sucker, white sucker, chinook salmon, coho salmon, sockeye salmon, kokanee, Kamloops trout, cutthroat trout, and brook trout were treated with various concentrations of 2, 2, 2, 1-tetrachloroethyl diethyl phosphate and at various temperatures to determine approximate selectivity and safety indices. The approximate LC50 and LC100 of the target fishes (threespine and brook sticklebacks and bridgelip and white suckers) are tabulated in Table 5. The 96-hour selectivity and safety indices of selected species of salmonids versus the threespine stickleback are tabulated in Table 7.

in vivo = conditions: chinook salmon
chinook salmon = conditions: in vivo
threespine stickleback [6] = system: threespine stickleback; design: species or system Gasterosteus aculeatus; conditions: in vivo
threespine stickleback [7] = system: threespine stickleback; design: species or system Gasterosteus aculeatus; conditions: in vivo, 5760 min

In the case of C=C(C)[C@H]1Cc2c(ccc3c2O[C@@H]2COc4cc(OC)c(OC)cc4[C@@H]2C3=O)O1 [rotenone], the “control of sucker and stickleback numbers by spot poisoning” value (sucker and stickleback [1]; background) is given as “ineffective in controlling sucker and stickleback numbers”.

With “O,O-diethyl S-(2,2-dichlorovinyl) thiophosphate” the “selectivity/specificity for sucker and stickleback” value (sucker and stickleback [2]) was “extremely selective for suckers and stickleback”, the “concentration below which no mortality occurred in steelhead” value (steelhead trout) was “below 1.0 mg/l” and the “activity and selectivity of the two chemicals” value (bridgelip sucker [3]) was “very similar”. For the same compound, the “concentration of 100% mortality of sucker” value (bridgelip sucker [3]) was 0.1 mg/L and the harm to salmonids (salmonids; 24-hour bioassays, about 15 C) was “harmless to salmonids”.

For COP(=O)(OC)OC=C(Cl)Cl [O,O-dimethyl O-(2,2-dichlorovinyl) phosphate], the injury to carp (carp) is given as “without injuring carp”, the carcinogenicity / residues [4] is given as “none suggest that DDVP is a carcinogen or concentrates residues” and the “selectivity for stickleback or suckers” value (sucker and stickleback [1]; in vivo) is given as “no selectivity for stickleback or suckers”.

In the case of CCOP(=O)(OCC)OC(Cl)CCl (stereo not shown) [1,2-dichloroethyl diethyl phosphate], the “selectivity/specificity for sucker and stickleback” value (sucker and stickleback [2]) is reported as “extremely selective for suckers and stickleback”, the “concentration below which almost no mortality occurred in trout” value (steelhead trout) is reported as “below 3.0 mg/l” and the “concentration below which no mortality occurred in steelhead” value (steelhead trout) is reported as “below 5.0 mg/l”. The safety index (bridgelip sucker [5]) was 10, the selectivity index (bridgelip sucker [5]) was 35 and the “activity and selectivity of the two chemicals” value (bridgelip sucker [3]) was “very similar”. For the same compound, the “concentration of 100% mortality of sucker” value (bridgelip sucker [3]) was 0.1 mg/L, the “concentration of almost 100% mortality of sucker” value (bridgelip sucker [3]) was 0.3 mg/L and the harm to salmonids (salmonids; in vivo) was “harmless to salmonids”.

In the case of CCOP(=O)(OCC)OC(Cl)=C(Cl)Cl [2,2,1-trichlorovinyl diethyl phosphate], the LC50 (in vivo) is reported as 0.018 to 0.02 µg/mL, the “activity relative to the dichloro-compounds” value (sucker and stickleback [2]) is reported as “about 100 times” and the LC0 (chinook salmon; chinook salmon) is reported as “about 16 μg/l”. The LC50 (threespine stickleback [6]) was 0.008 µg/mL, the LC100 (threespine stickleback [6]) was about 11 µg/L and the toxicity to stickleback (threespine stickleback [6]) was “almost as toxic to stickleback as 2,2,2,1-tetrachloroethyl diethyl phosphate”.

With O=C(O)C(Cl)Cl [dichloroacetic acid, reference compound] the mortality (chinook salmon) was “suffered no mortalities”.

For CCOP(=O)(OCC)OC(=C(Cl)Cl)P(=O)(OCC)OCC [2,2-dichloro-1-diethyl phosphonovinyl diethyl phosphate], the LC50 (in vivo) was 0.018 to 0.02 µg/mL, the “Safety index (LC0/LC100)” value (threespine stickleback [7]) was 0.9 and the LC50 (threespine stickleback [6]) was 0.008 µg/mL.
